{"source": "ChEMBL document CHEMBL5038569", "about": "“Targeting RECQL5 Functions, by a Small Molecule, Selectively Kills Breast Cancer in Vitro and in Vivo” (J Med Chem, 2021)", "key": {"MCF7 [1]": {"system": "MCF7", "experiment": "Inhibition of homologous recombinant repair in human MCF7 cells expressing RECQL5 wildtype/ SceGFP/iGFP mutants assessed as I-SceI induced generation of resected double stand breaks by measuring GFP-expressing cells at 10 uM measured after 48 hrs by flow cytometry analysis", "format": "functional, cell-based"}, "MCF7 [2]": {"system": "MCF7", "experiment": "Induction of DNA damage in RECQL5 knock out human MCF7 cells assessed as double strand breaks by measuring increase in phosphorylation of p53 at S15 residue at 20 uM measured up to 24 hrs by Western blot analysis", "format": "functional, cell-based", "details": "time hrs <=24"}}, "note": "Active and inactive are the calls of the source. No cut-off for these calls is given here.", "data": [{"smiles": "O=C(Nc1cc(C(F)(F)F)cc(C(F)(F)F)c1)N[C@@H](c1ccccc1)c1nnc(SCc2ccccc2)o1", "values": [{"measurement": "inhibition", "setting": "MCF7 [1]", "result": "Active"}, {"measurement": "Activity", "setting": "MCF7 [2]", "result": "inactive"}]}]}
